What was measured:
brain = test: Matured TTM-001 and TTM-002 variants, NGS enrichment in mouse brain; assay type: in vivo, mice; settings: relative to AAV9 control
[1] = tested on: brains, heart, liver, muscle, and DRG of the NHPs; test: Maturation of TTM-001 and TTM-002 capsids, NGS enrichment in NHP tissues; assay type: in vivo; settings: relative to AAV9 control
Method in brief: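 Variants carry mutations within and flanking the loop IV peptide insert: positions 450–466 were triplet-randomized, while positions 449–466 received low-frequency point mutations. The combined pool went into two NHPs, and each peptide was scored by NGS enrichment ratio against AAV9.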

[2] = NGS fold-enrichment of matured AAV capsid variants, NHP brain, RNA
[3] = NGS fold-enrichment, brain of mice
[4] = NGS fold-enrichment, DRG of NHPs
[5] = NGS fold-enrichment, RNA, brain of NHPs
[6] = NGS fold-enrichment, heart of NHPs
[7] = NGS fold-enrichment, liver DNA of NHPs
[8] = NGS fold-enrichment, liver RNA of NHPs
[9] = NGS fold-enrichment, muscle of NHPs

Sequence	Fold Enrichment relative to AAV9, Brain (Mouse) (brain; mouse brain) [fold]	Fold Enrichment relative to AAV9, Brain (NHP) [1, 2] [fold]	Fold Enrichment relative to AAV9, DRG (NHP) ([1]; NHP DRG) [fold]	Fold Enrichment relative to AAV9, Heart (NHP) ([1]; NHP heart) [fold]	Fold Enrichment relative to AAV9, Liver DNA (NHP) ([1]; NHP liver, DNA) [fold]	Fold Enrichment relative to AAV9, Liver RNA (NHP) ([1]; NHP liver, RNA) [fold]	Fold Enrichment relative to AAV9, Muscle (NHP) ([1]; NHP muscle) [fold]	Fold Enrichment relative to AAV9, Brain (Mouse) (brain; [3]) [fold]	Fold Enrichment relative to AAV9, DRG (NHP) [1, 4] [fold]	Fold Enrichment relative to AAV9, Brain (NHP) [1, 5] [fold]	Fold Enrichment relative to AAV9, Heart (NHP) [1, 6] [fold]	Fold Enrichment relative to AAV9, Liver DNA (NHP) [1, 7] [fold]	Fold Enrichment relative to AAV9, Liver RNA (NHP) [1, 8] [fold]	Fold Enrichment relative to AAV9, Muscle (NHP) [1, 9] [fold]	other results
KTINGSGSPHSKAQRMNT	97.975	50.686	0.000	108.747	0.264	0.943	0.019	–	–	–	–	–	–	–	–
KTINGSGSPHSKAQRMST	53.414	58.435	0.192	0.037	0.882	1.707	0.000	–	–	–	–	–	–	–	–
KTINGSGSPHSKAQRTCT	90.146	57.863	0.000	0.140	1.716	1.855	0.129	–	–	–	–	–	–	–	–
KTINGSGSPHSKAQRTMT	–	–	–	–	–	–	–	100.248	0.000	80.388	0.022	1.025	1.812	0.170	Fold Enrichment relative to AAV9, Brain (Mouse) (brain; NGS fold-enrichment, mouse brain): 100.248 fold; Fold Enrichment relative to AAV9, Brain (NHP) ([1]; NGS fold-enrichment of RNA, NHP brain): 80.388 fold; Fold Enrichment relative to AAV9, DRG (NHP) ([1]; NGS fold-enrichment, NHP DRG): 0.000 fold; Fold Enrichment relative to AAV9, Heart (NHP) ([1]; NGS fold-enrichment, NHP heart): 0.022 fold; Fold Enrichment relative to AAV9, Liver DNA (NHP) ([1]; NGS fold-enrichment, NHP liver DNA): 1.025 fold; Fold Enrichment relative to AAV9, Liver RNA (NHP) ([1]; NGS fold-enrichment, NHP liver RNA): 1.812 fold; Fold Enrichment relative to AAV9, Muscle (NHP) ([1]; NGS fold-enrichment, NHP muscle): 0.170 fold
KTINGSGSPHSKAQSAHT	79.498	51.569	0.068	0.070	0.249	0.589	0.000	–	–	–	–	–	–	–	–
KTINGSGSPHSKAQSKVT	76.115	56.373	0.000	0.050	0.390	1.021	0.014	–	–	–	–	–	–	–	–
KTINGSGSPHSKAQSLQI	51.543	53.778	0.000	0.186	0.047	0.022	0.000	–	–	–	–	–	–	–	–
KTINGSGSPHSKAQSPPT	–	–	–	–	–	–	–	97.111	0.069	71.632	0.047	0.425	0.179	0.274	–
KTINGSGSPHSKAQSQQL	–	–	–	–	–	–	–	51.126	0.000	70.539	0.000	0.041	0.000	0.000	–
